Test results taken from US10597388B2, “Pyridazinone herbicides” (FMC CORPORATION, priority 2014, dated 2020).

Key:
Assay in all cases: Test D controlled growth environment herbicide test, pre- and postemergence
Format in all cases: in vivo
[1] = test system: speedwell (bird's-eye speedwell, Veronica persica)
How it was run: (§1)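 Species sown in silt loam and sprayed preemergence, or grown in peat-based medium to 2–18 cm (1- to 4-leaf stage) and sprayed postemergence, with compounds in non-phytotoxic solvent plus surfactant. Visual injury scored versus controls after 14–21 d in a controlled environment, 0 (no effect) to 100 (complete control).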

[2] = test system: bromegrass, downy (downy bromegrass, Bromus tectorum)
How it was run: as §1

[3] = test system: ryegrass, Italian (Italian ryegrass, Lolium multiflorum)
How it was run: as §1

[4] = test system: barley, winter (winter barley, Hordeum vulgare)
How it was run: as §1

[5] = test system: buckwheat, wild (wild buckwheat, Polygonum convolvulus)
How it was run: as §1

[6] = test system: lambsquarters (Chenopodium album)
How it was run: as §1

[7] = test system: chickweed (common chickweed, Stellaria media)
How it was run: as §1

[8] = test system: chamomile (scentless chamomile, Matricaria inodora)
How it was run: as §1

[9] = test system: field poppy (Papaver rhoeas)
How it was run: as §1

[10] = test system: oilseed rape (Brassica napus)
How it was run: as §1

[11] = test system: canarygrass (Phalaris minor)
How it was run: as §1

[12] = test system: blackgrass (Alopecurus myosuroides)
How it was run: as §1

[13] = test system: galium (catchweed bedstraw, Galium aparine)
How it was run: as §1

[14] = Postemergence, 31 g ai/ha, scale 0 to 100 (0 no effect, 100 complete control)
[15] = Postemergence, 125 g ai/ha, visual rating on scale 0 (no effect) to 100 (complete control), 14 to 21 d
[16] = Postemergence, 250 g ai/ha, scale 0 to 100 (0 no effect, 100 complete control)
[17] = Preemergence, 62 g ai/ha, scale 0 to 100 (0 no effect, 100 complete control)
[18] = Preemergence, 125 g ai/ha, scale 0 to 100 (0 no effect, 100 complete control)
[19] = Preemergence, 250 g ai/ha, scale 0 to 100 (0 no effect, 100 complete control)
[20] = postemergence, 62 g ai/ha, scale 0 to 100, 0 no effect, 100 complete control

CCC(=O)Oc1c(C)nn(C)c(=O)c1-c1c(C)sc2ccc(C)cc12 [Compound 42]
Speedwell plant response rating [1, 14]: 10
Plant response rating, Speedwell [1, 15]: 45
Plant response rating, Speedwell [1, 16]: 45
Plant response rating (scale of 0 to 100), Speedwell ([1]; Preemergence, 31 g ai/ha): 70
Plant response rating, Speedwell [1, 17]: 75
Plant response rating, Speedwell [1, 18]: 70
Plant response rating, Speedwell [1, 19]: 100
Plant response rating, Speedwell [1, 20]: 50
Bromegrass, Downy plant response rating [2, 14]: 0
Plant response rating, Bromegrass, Downy [2, 15]: 40
Plant response rating, Bromegrass, Downy [2, 16]: 70
Plant response rating (scale of 0 to 100), Bromegrass, Downy ([2]; Preemergence, 31 g ai/ha): 45
Plant response rating, Bromegrass, Downy [2, 17]: 55
Plant response rating, Bromegrass, Downy [2, 18]: 70
Plant response rating, Bromegrass, Downy [2, 19]: 90
Plant response rating, Bromegrass, Downy [2, 20]: 20
Ryegrass, Italian plant response rating [3, 14]: 75
Plant response rating, Ryegrass, Italian [3, 15]: 85
Plant response rating, Ryegrass, Italian [3, 16]: 85
Plant response rating (scale of 0 to 100), Ryegrass, Italian ([3]; Preemergence, 31 g ai/ha): 95
Plant response rating, Ryegrass, Italian [3, 17]: 100
Plant response rating, Ryegrass, Italian [3, 18]: 100
Plant response rating, Ryegrass, Italian [3, 19]: 100
Plant response rating, Ryegrass, Italian [3, 20]: 80
Plant response rating, Barley, Winter [4, 14]: 0
Plant response rating, Barley, Winter [4, 15]: 0
Plant response rating, Barley, Winter [4, 16]: 10
Plant response rating (scale of 0 to 100), Barley, Winter ([4]; Preemergence, 31 g ai/ha): 0
Plant response rating, Barley, Winter [4, 17]: 0
Plant response rating, Barley, Winter [4, 18]: 5
Barley, Winter plant response rating [4, 19]: 15
Plant response rating, Barley, Winter [4, 20]: 0
Buckwheat, Wild plant response rating [5, 14]: 80
Plant response rating, Buckwheat, Wild [5, 15]: 100
Plant response rating, Buckwheat, Wild [5, 16]: 100
Plant response rating (scale of 0 to 100), Buckwheat, Wild ([5]; Preemergence, 31 g ai/ha): 20
Plant response rating, Buckwheat, Wild [5, 17]: 25
Plant response rating, Buckwheat, Wild [5, 18]: 80
Plant response rating, Buckwheat, Wild [5, 19]: 60
Plant response rating, Buckwheat, Wild [5, 20]: 95
Lambsquarters plant response rating [6, 14]: 80
Plant response rating, Lambsquarters [6, 15]: 85
Plant response rating, Lambsquarters [6, 16]: 90
Plant response rating (scale of 0 to 100), Lambsquarters ([6]; Preemergence, 31 g ai/ha): 98
Plant response rating, Lambsquarters [6, 17]: 100
Plant response rating, Lambsquarters [6, 18]: 100
Plant response rating, Lambsquarters [6, 19]: 100
Plant response rating, Lambsquarters [6, 20]: 85
Chickweed plant response rating [7, 14]: 95
Plant response rating, Chickweed [7, 15]: 100
Plant response rating, Chickweed [7, 16]: 100
Plant response rating (scale of 0 to 100), Chickweed ([7]; Preemergence, 31 g ai/ha): 100
Plant response rating, Chickweed [7, 17]: 100
Plant response rating, Chickweed [7, 18]: 100
Plant response rating, Chickweed [7, 19]: 100
Plant response rating, Chickweed [7, 20]: 100
Chamomile plant response rating [8, 14]: 75
Plant response rating, Chamomile [8, 15]: 100
Plant response rating, Chamomile [8, 16]: 100
Plant response rating (scale of 0 to 100), Chamomile ([8]; Preemergence, 31 g ai/ha): 95
Plant response rating, Chamomile [8, 17]: 100
Plant response rating, Chamomile [8, 18]: 100
Plant response rating, Chamomile [8, 19]: 100
Plant response rating, Chamomile [8, 20]: 70
Field Poppy plant response rating [9, 14]: 65
Plant response rating, Field Poppy [9, 15]: 100
Plant response rating, Field Poppy [9, 16]: 100
Plant response rating (scale of 0 to 100), Field Poppy ([9]; Preemergence, 31 g ai/ha): 100
Plant response rating, Field Poppy [9, 17]: 100
Plant response rating, Field Poppy [9, 18]: 100
Plant response rating, Field Poppy [9, 19]: 100
Plant response rating, Field Poppy [9, 20]: 85
Oilseed Rape plant response rating [10, 14]: 10
Plant response rating, Oilseed Rape [10, 15]: 60
Plant response rating, Oilseed Rape [10, 16]: 70
Plant response rating (scale of 0 to 100), Oilseed Rape ([10]; Preemergence, 31 g ai/ha): 0
Plant response rating, Oilseed Rape [10, 17]: 0
Plant response rating, Oilseed Rape [10, 18]: 0
Plant response rating, Oilseed Rape [10, 19]: 0
Plant response rating, Oilseed Rape [10, 20]: 50
Canarygrass plant response rating [11, 14]: 50
Plant response rating, Canarygrass [11, 15]: 80
Plant response rating, Canarygrass [11, 16]: 80
Plant response rating (scale of 0 to 100), Canarygrass ([11]; Preemergence, 31 g ai/ha): 90
Plant response rating, Canarygrass [11, 17]: 95
Plant response rating, Canarygrass [11, 18]: 100
Plant response rating, Canarygrass [11, 19]: 100
Plant response rating, Canarygrass [11, 20]: 75
Blackgrass plant response rating [12, 14]: 75
Plant response rating, Blackgrass [12, 15]: 80
Plant response rating, Blackgrass [12, 16]: 85
Plant response rating (scale of 0 to 100), Blackgrass ([12]; Preemergence, 31 g ai/ha): 80
Plant response rating, Blackgrass [12, 17]: 80
Plant response rating, Blackgrass [12, 18]: 95
Blackgrass plant response rating [12, 19]: 100
Plant response rating, Blackgrass [12, 20]: 75
Galium plant response rating [13, 14]: 100
Plant response rating, Galium [13, 15]: 100
Plant response rating, Galium [13, 16]: 100
Plant response rating (scale of 0 to 100), Galium ([13]; Preemergence, 31 g ai/ha): 70
Plant response rating, Galium [13, 17]: 85
Plant response rating, Galium [13, 18]: 95
Plant response rating, Galium [13, 19]: 100
Plant response rating, Galium [13, 20]: 100
